Measurements from US20050031604A1, “Isolation and purification procedure of vasopeptidase peptide inhibitors” (priority 2002, published 2005).
Non-standard residues stand in square brackets, D forms with d. Residues, ends and D or L forms follow the SMILES beside them. pGlu = O=C1CC[C@@H](C(=O)O)N1

Tests used:
[1] = test system: rat arterial blood pressure; assay: Potentiation of the hypotensive effect of bradykinin in rats; format: in vivo; settings: concentrations of 300 nM
Experimental: The hypotensive potentiating activity effect of bradykinin was tested in normotensive and hypertensive male and female Wistar rats, anesthetized with ethylic ether; a cannulae was introduced in the femoral vein for drug administration and in the femoral artery for blood pressure recording. A Gould polygraph was used coupled to a Statham Gould physiological transducer. The arterial pressure variation values were obtained by integration of the areas delimited by the pressure base line, and by comparing them with the values obtained in the control experiment. Toxin effect tests were carried out in normotensive and hypertensive rats by intra-vital microscopy using the mesenteric circulation. The animals were anesthetized, and their body temperature maintained by a heated plate, while the mesentery was trans-illuminated and observed through lenses coupled to a television camera. The vase diameters of these animals were measured with a micrometric screw. Tested substances were administered by a constant flow peristaltic pump or injected in bolus.
Wistar male rats with a body weight between 180 and 220 g were anesthetized with sodic pentabarbital (Hypnol® Cristalia, 50 mg/kg of body weight, intraperitoneally), while the body temperature was maintained between 36.5° C. and 37° C. by a heated plate. […]

[2] = molecular target: T1, N site of the ACE (human angiotensin converting enzyme mutant with only the N-terminal active site functional) (Homo sapiens, UniProt P12821, H988K/H992K); assay: Enzymatic assay of inhibition of the N-site of recombinant ACE; format: biochemical; settings: pentapeptide, range stated in words
T1 construct: The two ACE mutants were expressed as full-length proteins; made in house
T1 sequence (P12821 30-1306 H988K/H992K): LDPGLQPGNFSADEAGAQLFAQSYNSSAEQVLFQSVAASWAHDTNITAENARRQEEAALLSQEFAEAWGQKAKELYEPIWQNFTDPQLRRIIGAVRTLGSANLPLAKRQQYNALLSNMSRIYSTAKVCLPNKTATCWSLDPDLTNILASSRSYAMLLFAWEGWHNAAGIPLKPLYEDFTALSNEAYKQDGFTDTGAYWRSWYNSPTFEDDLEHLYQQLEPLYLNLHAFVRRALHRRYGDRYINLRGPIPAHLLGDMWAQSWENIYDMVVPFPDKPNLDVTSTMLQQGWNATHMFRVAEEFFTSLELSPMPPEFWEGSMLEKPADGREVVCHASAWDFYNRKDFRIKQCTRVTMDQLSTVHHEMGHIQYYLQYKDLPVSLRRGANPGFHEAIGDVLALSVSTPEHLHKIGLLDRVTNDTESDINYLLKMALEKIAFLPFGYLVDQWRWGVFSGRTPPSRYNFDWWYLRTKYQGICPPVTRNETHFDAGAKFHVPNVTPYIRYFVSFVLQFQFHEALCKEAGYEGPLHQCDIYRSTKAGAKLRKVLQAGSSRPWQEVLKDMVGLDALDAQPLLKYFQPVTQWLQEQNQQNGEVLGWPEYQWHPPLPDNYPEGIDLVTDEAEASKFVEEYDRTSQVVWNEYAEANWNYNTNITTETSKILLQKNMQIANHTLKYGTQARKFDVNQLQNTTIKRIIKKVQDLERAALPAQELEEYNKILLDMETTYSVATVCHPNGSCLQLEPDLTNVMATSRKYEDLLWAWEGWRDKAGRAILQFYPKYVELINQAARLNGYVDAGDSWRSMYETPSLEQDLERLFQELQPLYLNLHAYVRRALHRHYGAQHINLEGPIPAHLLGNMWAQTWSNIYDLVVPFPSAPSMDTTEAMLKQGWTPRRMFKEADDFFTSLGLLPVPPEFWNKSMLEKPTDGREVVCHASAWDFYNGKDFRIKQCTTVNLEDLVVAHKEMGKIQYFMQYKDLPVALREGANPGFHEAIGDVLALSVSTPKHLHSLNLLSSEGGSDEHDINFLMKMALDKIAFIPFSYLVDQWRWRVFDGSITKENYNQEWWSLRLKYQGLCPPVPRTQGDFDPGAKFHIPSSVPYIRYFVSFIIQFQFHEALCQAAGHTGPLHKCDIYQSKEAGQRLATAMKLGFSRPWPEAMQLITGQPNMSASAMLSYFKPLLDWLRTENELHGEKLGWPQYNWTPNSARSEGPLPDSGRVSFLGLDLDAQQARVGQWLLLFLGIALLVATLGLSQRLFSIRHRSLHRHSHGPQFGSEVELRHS
Experimental: (§1) The wild-type human angiotensin converting enzyme (ACE) and two mutants, containing only one functional active site, were obtained through stable transfection of chinese hamster ovary cells with the ACE encoding cDNA. The two ACE mutants were expressed as full-length proteins, presenting one of the catalytic sites, N- or C-terminal, inactivated by substitution of the zinc binding histidine residues by lysine residues.
(§2) The enzymatic assays were carried out at 25° C. with the substrate Mca-Ala-Ser-Asp-Lys-DpaOH, in a 50 mM Hepes buffer, pH 6.8, containing 200 mM NaCl and 10 μM ZnCl2. The reactions were continuously monitored by determining the raise in fluorescence at 390 nm emission wave length, and excitation at 340 nm, caused by the cleavage of the substrate (S=Km, 40 μM) by ACE, in a fluorimeter Fluorolite 10000 (Dynatech). The bradykinin potentiating peptides (BPPs) (inhibitors, were pre-incubated with the enzyme 90 min before the addition of the substrate.

[3] = molecular target: T2, C site of the ACE (human angiotensin converting enzyme mutant with only the C-terminal active site functional) (Homo sapiens, UniProt P12821, H390K/H394K); assay: Enzymatic assay of inhibition of the C-site of recombinant ACE; format: biochemical
T2 construct: The two ACE mutants were expressed as full-length proteins; made in house
T2 sequence (P12821 30-1306 H390K/H394K): as the sequence (P12821 30-1306 H988K/H992K) above, with H361K, H365K, K959H, K963H counted along it
Experimental: as §1, §2

NEP = NEP (Homo sapiens, UniProt P08473); assay: Inhibition of NEP; format: biochemical
NEP, sequence (P08473 whole entry): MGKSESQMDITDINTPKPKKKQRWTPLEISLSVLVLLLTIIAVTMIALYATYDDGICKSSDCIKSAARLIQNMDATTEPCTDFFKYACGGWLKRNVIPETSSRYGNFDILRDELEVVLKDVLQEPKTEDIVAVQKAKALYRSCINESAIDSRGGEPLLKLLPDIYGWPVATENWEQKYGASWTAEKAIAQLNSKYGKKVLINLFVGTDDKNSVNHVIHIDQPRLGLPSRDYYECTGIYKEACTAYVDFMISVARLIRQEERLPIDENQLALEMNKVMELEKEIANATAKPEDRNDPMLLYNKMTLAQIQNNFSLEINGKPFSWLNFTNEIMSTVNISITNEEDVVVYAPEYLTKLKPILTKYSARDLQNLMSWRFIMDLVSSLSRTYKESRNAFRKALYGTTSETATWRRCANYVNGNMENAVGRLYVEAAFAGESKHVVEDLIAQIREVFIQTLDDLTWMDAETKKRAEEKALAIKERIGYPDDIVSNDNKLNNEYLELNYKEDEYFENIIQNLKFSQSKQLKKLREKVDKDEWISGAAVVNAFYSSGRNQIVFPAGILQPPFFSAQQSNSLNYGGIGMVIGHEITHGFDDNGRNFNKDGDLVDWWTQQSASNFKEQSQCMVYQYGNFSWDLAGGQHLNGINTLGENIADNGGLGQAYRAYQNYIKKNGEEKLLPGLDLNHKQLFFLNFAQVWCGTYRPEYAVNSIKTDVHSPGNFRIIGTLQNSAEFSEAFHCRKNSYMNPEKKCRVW

[4] = test system: isolated guinea pig ileum; assay: Potentiation of the contractile activity of bradykinin on isolated guinea pig ileum
Experimental: The potentiating activity of the pools of isolated peptides was tested on the contractile activity of bradykinin on smooth muscle, measured using a preparation of isolated guinea pig ileum. Female guinea pigs with a body weight between 160 and 180 g were used. Before starting the assays, the ileum was kept in TYRODE solution at 37° C. for 30 min. One of the ends of the isolated ileum segment, measuring 1.5 to 2.0 cm, was tied to a semi-ring located at the bottom of a glass container with a capacity of 5 mL, containing the TYRODE physiological solution at 37° C. under constant oxygen bubbling through a capillary. The other extremity of the ileum segment was tied to a previously calibrated registering arm. The tension on the arm was of 1 g, and the ileum contractions were recorded by an REC101 recorder (Pharmacia Biotech).
In order to determine the bradykinin potentiating effect of the samples, a log-dose curve of the effect of bradykinin on the ileum was plotted. Bradykinin activity was determined by measuring the contractions of the isolated guinea pig ileum, and the potentiating activity was expressed as a function of the increase in tissue response to a standard dose of bradykinin.
Pools and fractions were assayed individually and were added 30 seconds before the addition of a simple dose of bradykinin. […]

C[C@H](NC(=O)[C@H](Cc1c[nH]c2ccccc12)NC(=O)[C@H](CCCCN)NC(=O)[C@@H]1CCC(=O)N1)C(=O)N1CCC[C@H]1C(=O)O [<E K W A P, Pyroglutamyl(<E)-Lysine(K)-tryptophane(W)-Alanine(A)-Proline (P)] ([pGlu]KWAP-OH) was tested, and the “increase in the duration of the hypotensive effect compared to bradykinin alone” value [1] was 5 fold, the “potentiation of the hypotensive effect of bradykinin” value [1] was 60% and the “Ki for the N site of the ACE” value [2] was “in the μM range”. The “selectivity for the C-site of the ACE” value ([3]; C site versus N site) was “not presenting a defined selectivity”, the “Ki for the C site of the ACE” value ([3]; pentapeptide, range stated in words) was “in the μM range” and the Ki (NEP) was 50 to 150 µM. The “concentrations that potentiate the contractile action of bradykinin on isolated guinea pig ileum” value [4] was 15 to 300 nM.
